Source: DBAASP
In brackets after ≈: the same amount, converted by molar mass.

Experiments:
Test in all cases: ≥ marks a high value that may be exact or a test limit, other limits are often not marked, values filed in µg/mL are converted to µM
[1] = test system: Corynebacterium glutamicum ATCC 13032
[2] = test system: Escherichia coli DH5alpha
[3] = test system: Candida albicans NCPF 1467
[4] = test system: Staphylococcus aureus ATCC 12493
[5] = test system: Escherichia coli ATCC 25922
[6] = test system: Escherichia coli NCTC 10418
[7] = test system: Staphylococcus aureus ATCC 25923
[8] = test system: Staphylococcus aureus NCTC 10788
[9] = test system: Escherichia coli MG1655
[10] = test system: Cronobacter sakazakii DSM 4485
[11] = test system: Cronobacter muytjensii ATCC 51329
[12] = test system: Staphylococcus aureus RN4220
[13] = test system: Pseudomonas fluorescens NCIMB 9046
[14] = test system: Staphylococcus aureus Newman
[15] = test system: Staphylococcus aureus SA113
[16] = test system: Staphylococcus aureus RF122
[17] = test system: Escherichia coli NCIMB 11843
[18] = test system: Staphylococcus aureus NCTC 8325-4
[19] = test system: Pseudomonas aeruginosa ATCC 27853
[20] = test system: Klebsiella pneumoniae NCIMB 13218
[21] = test system: Cronobacter sakazakii ATCC BAA-894
[22] = test system: Salmonella enterica subsp. enterica serovar Typhimurium LT2
[23] = test system: Cronobacter sakazakii DPC 6440
[24] = test system: Candida albicans ATCC 2002
[25] = test system: Staphylococcus aureus ATCC 2592
[26] = test system: Pseudomonas aeruginosa ATCC 9027
[27] = test system: Escherichia coli BL21
[28] = test system: Staphylococcus epidermidis
[29] = test system: Escherichia coli ML-35p
[30] = test system: Staphylococcus aureus ATCC BAA-44
[31] = test system: Enterococcus faecalis ATCC 29212

Row | Structure (SMILES) | MIC [5] [µM] | MIC [10] [µM] | MIC [11] [µM] | MIC [12] [µM] | MIC [13] [µM] | MIC [14] [µM] | MIC [15] [µM] | MIC [16] [µM] | MIC [17] [µM] | MIC [18] [µM] | MIC [20] [µM] | MIC [21] [µM] | MIC [22] [µM] | MIC [23] [µM] | further results
1 | CC[C@H](C)[C@H](NC(=O)[C@H](Cc1c[nH]c2ccccc12)NC(=O)[C@@H](N)CCCCN)C(=O)N[C@H]1CSSC[C@@H](C(=O)N[C@@H](CCCN=C(N)N)C(=O)N[C@@H](Cc2c[nH]c3ccccc23)C(=O)N[C@@H](CCCN=C(N)N)C(=O)O)NC(=O)[C@H](Cc2ccc(O)cc2)NC(=O)[C@H]([C@@H](C)O)NC(=O)[C@H]([C@@H](C)CC)NC(=O)[C@H](Cc2c[nH]c3ccccc23)NC(=O)[C@H](CCCN=C(N)N)NC(=O)CNC(=O)[C@H](CCCN=C(N)N)NC(=O)[C@H](Cc2ccc(O)cc2)NC(=O)[C@H](Cc2c[nH]c3ccccc23)NC(=O)[C@H](CC(C)C)NC(=O)[C@H](CCCN=C(N)N)NC(=O)[C@H](CCCN=C(N)N)NC1=O [KWICRRLWYRGRWITYCRWR] | – | – | – | – | – | – | – | – | – | – | – | – | – | – | MIC [1]: 0.78 µM (≈ 2.23 µg/mL); MIC [2]: 12.5 µM (≈ 35.7 µg/mL)
2 | CC(C)C[C@H](NC(=O)[C@H](C)NC(=O)[C@H](CC(C)C)NC(=O)[C@H](CO)NC(=O)[C@H](CC(C)C)NC(=O)[C@@H](N)Cc1ccccc1)C(=O)N[C@@H](C)C(=O)N[C@@H](C)C(=O)N[C@@H](CC(C)C)C(=O)N1CCC[C@H]1C(=O)N[C@@H](CCCCN)C(=O)N[C@@H](Cc1ccccc1)C(=O)N[C@@H](CC(C)C)C(=O)N[C@H]1CSSC[C@@H](C(=O)O)NC(=O)[C@H](CCCCN)NC(=O)[C@H](CCCCN)NC(=O)[C@H](Cc2ccccc2)NC(=O)[C@H](C(C)C)NC(=O)[C@H](CC(C)C)NC1=O [FLSLALAALPKFLCLVFKKC] | 15 (≈ 33.4 µg/mL) | – | – | – | – | – | – | – | – | – | – | – | – | – | MIC [3]: ≥ 32 µM; MIC [4]: ≥ 32 µM; MIC [6]: ≥ 512 µM; MIC [7]: 15 µM (≈ 33.4 µg/mL); MIC [8]: ≥ 32 µM
3 | CC[C@H](C)[C@H](NC(=O)[C@H](CCCCN)NC(=O)CNC(=O)[C@H](CC(C)C)NC(=O)[C@H](Cc1ccccc1)NC(=O)[C@H](CCC(N)=O)NC(=O)[C@H](Cc1ccccc1)NC(=O)[C@@H](N)C(C)C)C(=O)N[C@H](C(=O)N[C@@H](Cc1cnc[nH]1)C(=O)N[C@@H](Cc1cnc[nH]1)C(=O)N[C@H](C(=O)NCC(=O)N[C@@H](CC(N)=O)C(=O)N[C@@H](Cc1ccccc1)C(=O)N[C@H](C(=O)N[C@@H](Cc1cnc[nH]1)C(=O)NCC(=O)N[C@@H](Cc1ccccc1)C(=O)N[C@@H](CO)C(=O)N[C@@H](C)C(=O)N[C@H](C(=O)N[C@@H](Cc1ccccc1)C(N)=O)C(C)C)C(C)C)C(C)C)[C@@H](C)CC [VFQFLGKIIHHVGNFVHGFSAVF] | – | – | – | – | – | – | – | – | – | – | – | – | – | – | MIC [9]: ≥ 64 µM
4 | CC(C)C[C@H](NC(=O)[C@H](CC(C)C)NC(=O)[C@H](CC(C)C)NC(=O)[C@@H]1CCCN1C(=O)[C@H](CC(C)C)NC(=O)[C@@H](N)Cc1ccccc1)C(=O)N[C@@H](CO)C(=O)N[C@@H](C)C(=O)N[C@@H](CC(C)C)C(=O)N1CCC[C@H]1C(=O)N[C@@H](CO)C(=O)N[C@@H](Cc1ccccc1)C(=O)N[C@@H](CC(C)C)C(=O)N[C@H]1CSSC[C@@H](C(=O)O)NC(=O)[C@H](CCCCN)NC(=O)[C@H](CCCCN)NC(=O)[C@H](Cc2ccccc2)NC(=O)[C@H](C(C)C)NC(=O)[C@H](CC(C)C)NC1=O [FLPLLLSALPSFLCLVFKKC] | 33 (≈ 74.3 µg/mL) | – | – | – | – | – | – | – | – | – | – | – | – | – | MIC [3]: ≥ 512 µM; MIC [24]: ≥ 44 µM; MIC [4]: ≥ 512 µM; MIC [25]: 17 µM (≈ 38.3 µg/mL); MIC [26]: > 44 µM; MIC [6]: ≥ 512 µM; MIC [8]: ≥ 32 µM
5 | CC[C@H](C)[C@H](NC(=O)[C@H](CCCCN)NC(=O)[C@H](CCCN=C(N)N)NC(=O)[C@H](CCCCN)NC(=O)[C@H](CCCCN)NC(=O)[C@H](CCCCN)NC(=O)[C@H](Cc1c[nH]c2ccccc12)NC(=O)[C@H](CCCCN)NC(=O)[C@H](CC(C)C)NC(=O)[C@H](CO)NC(=O)[C@H](Cc1ccccc1)NC(=O)[C@H](CCCN=C(N)N)NC(=O)[C@H](CC(=O)O)NC(=O)[C@H](CCSC)NC(C)=O)C(=O)N[C@@H](CCCN=C(N)N)C(=O)N[C@@H](CCCN=C(N)N)C(=O)N[C@@H](CCCN=C(N)N)C(=O)N[C@@H](CCCN=C(N)N)C(=O)N[C@@H](CCCN=C(N)N)C(=O)N[C@@H](CCCN=C(N)N)C(=O)N[C@@H](CCCN=C(N)N)C(=O)N[C@@H](CCCN=C(N)N)C(=O)N[C@@H](CCCN=C(N)N)C(=O)N[C@@H](CCCN=C(N)N)C(=O)N[C@@H](CCCN=C(N)N)C(N)=O [MDRFSLKWKKKRKIRRRRRRRRRRR] | – | – | – | – | – | – | – | – | – | – | – | – | – | – | MIC [9]: 7.5 µM (≈ 27.2 µg/mL); MIC [27]: 4 µM (≈ 14.5 µg/mL); MIC [28]: 3 µM (≈ 10.9 µg/mL)
6 | CC[C@H](C)[C@H](NC(=O)CN)C(=O)N[C@@H](CCCCN)C(=O)N[C@@H](CC(=O)O)C(=O)N[C@@H](CC(C)C)C(=O)N[C@@H](CC(C)C)C(=O)N[C@@H](CCCCN)C(=O)NCC(=O)N[C@@H](C)C(=O)N[C@@H](C)C(=O)N[C@@H](CCCCN)C(=O)N[C@@H](C)C(=O)N[C@@H](CC(C)C)C(=O)N[C@H](C(=O)N[C@@H](CCCCN)C(=O)N[C@H](C(=O)N[C@H](C(=O)N[C@@H](CC(C)C)C(=O)N[C@@H](CCCCN)C(N)=O)C(C)C)[C@@H](C)O)C(C)C [GIKDLLKGAAKALVKTVLK] | 1.7 (≈ 3.34 µg/mL) | – | – | – | – | – | – | – | – | – | – | – | – | – | MIC [29]: 12.5 µM (≈ 24.6 µg/mL); MIC [30]: 6.3 µM (≈ 12.4 µg/mL); MIC [19]: 25 µM (≈ 49.1 µg/mL); MIC [7]: 4.7 µM (≈ 9.24 µg/mL); MIC [31]: 50 µM (≈ 98.3 µg/mL)

More lines, main results first:

Row | MIC [5] [µM] | MIC [10] [µM] | MIC [11] [µM] | MIC [12] [µM] | MIC [13] [µM] | MIC [14] [µM] | MIC [15] [µM] | MIC [16] [µM] | MIC [17] [µM] | MIC [18] [µM] | MIC [20] [µM] | MIC [21] [µM] | MIC [22] [µM] | MIC [23] [µM] | Structure (SMILES) | further results
7 | – | ≥ 2500 | ≥ 625 | ≥ 1250 | ≥ 2500 | ≥ 1250 | ≥ 1250 | ≥ 1250 | ≥ 2500 | ≥ 625 | ≥ 2500 | ≥ 1250 | ≥ 2500 | ≥ 625 | CC(C)C[C@H](NC(=O)[C@H](C)NC(=O)[C@@H](N)C(C)C)C(=O)N[C@@H](CC(N)=O)C(=O)N[C@@H](CCC(=O)O)C(=O)N[C@@H](CC(N)=O)C(=O)N[C@@H](CC(C)C)C(=O)N[C@@H](CC(C)C)C(=O)N[C@@H](CCCN=C(N)N)C(=O)O [VALNENLLR] | MIC [19]: 32 µM (≈ 33.3 µg/mL)
8 | – | ≥ 1250 | ≥ 1250 | ≥ 1250 | ≥ 625 | ≥ 1250 | ≥ 1250 | ≥ 1250 | ≥ 2500 | ≥ 1250 | ≥ 2500 | ≥ 2500 | ≥ 2500 | ≥ 1250 | CC(C)C[C@H](NC(=O)[C@H](CC(C)C)NC(=O)[C@H](CC(N)=O)NC(=O)[C@H](CCC(=O)O)NC(=O)[C@H](CC(N)=O)NC(=O)[C@H](CC(C)C)NC(=O)[C@@H](N)C(C)C)C(=O)N[C@@H](CCCCN)C(=O)O [VLNENLLK] | –
9 | – | ≥ 2500 | ≥ 2500 | ≥ 1250 | ≥ 1250 | ≥ 1250 | ≥ 625 | ≥ 1250 | ≥ 1250 | ≥ 625 | ≥ 1250 | ≥ 2500 | ≥ 2500 | ≥ 625 | CC(C)C[C@H](NC(=O)[C@H](CC(N)=O)NC(=O)[C@H](CCC(=O)O)NC(=O)[C@H](CC(N)=O)NC(=O)[C@H](CC(C)C)NC(=O)[C@@H](N)C(C)C)C(=O)N[C@@H](C)C(=O)N[C@@H](CCCN=C(N)N)C(=O)O [VLNENLAR] | –
